Source: patent US20070275382A1, “Biomarkers for the Efficacy of Somatostatin Analogue Treatment” (priority 2003, published 2007)
*1 amine or outer side, *2 acyl side, *3 side chain or, on linkers, in order; H or OH if unused. Where a SMILES comes first, the peptide text is derived from it. Side-chain parts run from the residue outwards. [ ]: non-standard residue; d: D form. The star is where a group is joined. Ethylenediamine = C(CN[*:2])N[*:1]; Hyp = O=C(O)[CH]1C[CH](O)CN1; Phg = N[CH](C(=O)O)c1ccccc1; CO = O=C([*:1])[*:2]; Bn = c1ccc(C*)cc1

Test system: Brown fat
Test: Microarray gene expression profiling (HG-U95A), brown fat
Format: in vivo, cynomolgus monkeys
Experimental: Origin of tissue and processing. Male and female cynomolgus monkeys received subcutaneously pasireotide (100 μg/animal/day) or the vehicle for 14 days. On day 15, all animals were sacrificed and tissues for RNA extraction were immediately snap-frozen and kept at −80° C. until processing.
RNA expression profiling was conducted by means of the HG-U95A gene expression probe array (Affymetrix; Santa Clara, Calif. USA), containing more than 12,600 probe sets interrogating primarily full-length human genes and also some control probe sets. The experiment was conducted according to the recommendations of the manufacturer. Briefly, total RNA was obtained by acid guanidinium thiocyanate-phenol-chloroform extraction (Trizol®, Invitrogen Life Technologies, San Diego, Calif. USA) from each frozen tissue section. The total RNA was then purified on an affinity resin (Rneasy®, Qiagen) and quantified. Double stranded cDNA was synthesized with a starting amount of approximately 5 μg full-length total RNA using the Superscript® Choice System (Invitrogen Life Technologies, Carlsbad, Calif. USA) in the presence of a T7-(dT)24 DNA oligonucleotide primer. Following synthesis, the cDNA was purified by phenol/chloroform/isoamyl alcohol extraction and ethanol precipitation. The purified cDNA was then transcribed in vitro using the BioArray® High Yield RNA Transcript Labeling Kit (ENZO, Farmingdale, N.Y. USA) in the presence of biotinylated ribonucleotides form biotin labelled cRNA. The labelled cRNA was then purified on an affinity resin (Rneasy®, Qiagen), quantified and fragmented. An amount of approximately 10 μg labelled cRNA was hybridized for 16 hours at 45° C. to an expression probe array. The array was then washed and stained twice with streptavidin-phycoerythrin (Molecular Probes,) using the GeneChip® Fluidics Workstation 400 (Affymetrix, Santa Clara, Calif. USA). The array was then scanned twice using a confocal laser scanner (GeneArray® Scanner, Agilent, Palo Alto, Calif. USA) resulting in one scanned image. This resulting “.dat-file” was processed using the MAS4 program (Affymetrix) into a “.cel-file”. The “.cel file” was captured and loaded into the Affymetrix GeneChip® Laboratory Information Management System (LIMS). The LIMS database is connected to a UNIX Sun Solaris server through a network filing system that allows for the average intensities for all probes cells (CEL file) to be downloaded into an Oracle database (NPGN). Raw data was converted to expression levels using a “target intensity” of 150. The data were evaluated for quality control and loaded in the GeneSpring® software 4.2.4 (Silicon Genetics, Calif. USA) for analysis.
On the human Affymetrix HGU95Av2 chip, probe sets for individual genes contain 20 oligonucleotide pairs, each composed of a “perfect match” 25-mer and a “mismatch” 25-mer differing from the “perfect” match oligonucleotide at a single base. After probe labelling, hybridization, and laser scanning, the expression level was estimated by averaging the differences in signal intensity measured by oligonucleotide pairs of a given probe (AvgDiff value). The fold changes and directions were calculated for selected genes, from the differences of the AvgDiff values between controls and treated.
To identify genes that were impacted by pasireotide, the dataset was initially filtered to exclude in a first wave of analysis, genes whose values were systematically in the lower expression ranges where the experimental noise is high (at least 80 in a number of experiments corresponding to the smallest number of replicas of any experimental point). In a second round of selection a threshold p-value of 0.05 (based on a t-test) identified differences between treated and control based on a two component error model (Global Error Model) and, whenever possible, with a stepdown correction for multi-hypothesis testing (Benjamini and Hochberg false discovery rate). […]

[1] = ↑ vs control, 100 μg/animal/day s.c., 14 days
[2] = ↓ vs control, 100 μg/animal/day s.c., 14 days

In the case of NCCCCC1NC(=O)C(Cc2c[nH]c3ccccc23)NC(=O)C(c2ccccc2)NC(=O)C2CC(OC(=O)NCCN)CN2C(=O)C(Cc2ccccc2)NC(=O)C(Cc2ccc(OCc3ccccc3)cc2)NC1=O (stereo not drawn) [Pasireotide, cyclo[4-(NH2—C2H4—NH—CO—O)Pro-Phg-DTrp-Lys-Tyr(4-Bzl)-Phe]] (cyclo(F[Hyp]([CO-Ethylenediamine])[Phg]WKY(Bn)); configuration not given here), the “IGF-1 expression level, AvgDiff (range)” value (0.1 mg/animal/14day) is reported as 389 (315 to 449), the “IGFBP 4 expression level, AvgDiff (range)” value (0.1 mg/animal/14day) is reported as 763 (429 to 1058) and the “IRS 2 expression level, AvgDiff (range)” value (0.1 mg/animal/14day) is reported as 146 (80 to 222). For the same molecule, the “SSTR3 expression level, AvgDiff (range)” value (0.1 mg/animal/14day) was 194 (87 to 248), the “Adrenergic, β-3-, receptor transcript fold change” value [1] was “receptor ↑ x2.5” and the “Apotosis-associated tyrosine kinase transcript fold change” value [1] was “tyrosine kinase ↑ x3.5”. The “CD2 antigen (cytoplasmic tail)-binding protein 2 transcript fold change” value [1] was “binding protein 2 ↑ x2.5”, the “CSF 3 receptor (granulocyte) transcript fold change” value [1] was “(granulocyte) ↑ x3” and the “Ca++ channel, voltage dependent, α 1H subunit transcript fold change” value [1] was “↑ x3”. For the same molecule, the “Cadherin 5, VE-cadherin (vascular epithelium) transcript fold change” value [1] was “epithelium) ↑ x3”, the “Cyclin T2 transcript fold change” value [1] was “Cyclin T2 ↑ x2.5” and the “Dopamine receptor D3 transcript fold change” value [1] was “↑ x2.5”. The “Dual specificity PP MKP-5 transcript fold change” value [1] was “MKP-5 ↑ x2.5”, the “Endothelial differentiation, sphingolipid G-protein-coupled receptor, 5 transcript fold change” value [1] was “↑ x2.5” and the “FSHR transcript fold change” value [1] was “FSHR ↑ x2.5”. For the same molecule, the “Follistatin-like 3 glycoprotein transcript fold change” value [1] was “glycoprotein ↑ x3”, the “G protein-activated inwardly rectifying K+ channel transcript fold change” value [1] was “channel ↑ x3.5” and the “GLUR, metabotropic 1 transcript fold change” value [1] was “↑ x2”. For the same molecule, the “Guanine nucleotide binding protein (G protein), β polypeptide 3 transcript fold change” value [1] was “↑ x2.5”, the “IFN induced transmembrane protein 1 transcript fold change” value [1] was 1 ↑ x2.5 and the “IL 3 (CSF, multiple) transcript fold change” value [1] was “↑ x2”. For the same molecule, the “IL 5R, α transcript fold change” value [1] was “IL 5R, α↑ x2.5”, the “IL 7R precursor transcript fold change” value [1] was “IL 7R precursor ↑ x2” and the “IRS (insulin receptor substrate) 2 transcript fold change” value [1] was “substrate) 2 ↑ x2.5”. The “Oxytocin, prepro-(neurophysin I) transcript fold change” value [1] was “(neurophysin I) ↑ x2.5”, the “PI glycan, class L transcript fold change” value [1] was “x3.5” and the “PLC β 4 transcript fold change” value [1] was “PLC β 4 ↑ x2”. The “PP 5, catalytic subunit transcript fold change” value [1] was “↑ x2.5”, the “T3 receptor transcript fold change” value [1] was “T3 receptor ↑ x2” and the “TGF β 3 transcript fold change” value [1] was “TGF β 3 ↑ x2.5”. For the same molecule, the “TGF β-activated kinase-binding protein 1 transcript fold change” value [1] was “↑ x2.5”, the “VGF nerve growth factor inducible transcript fold change” value [1] was “factor inducible ↑ x2” and the “Actin related protein 2/3 complex, subunit 1A (41 kD) transcript fold change” value [2] was “(41 kD) ↓ x2.5”. For the same molecule, the “CSF 1 (macrophage) transcript fold change” value [2] was “↓ x2”, the “Cadherin 13, H-cadherin (heart) transcript fold change” value [2] was “cadherin (heart) ↓ x2” and the “Cadherin F1B1 transcript fold change” value [2] was “Cadherin F1B1 ↓ x4”. For the same molecule, the “Calcium/calmodulin-dependent protein kinase I transcript fold change” value [2] was “kinase I ↓ x3.5”, the “Capping protein (actin filament), gelsolin-like transcript fold change” value [2] was “↓ x2.5” and the “Coagulation factor XIIIAI subunit precursor transcript fold change” value [2] was “↓ x5”. For the same molecule, the “EGF receptor pathway substrate 15 transcript fold change” value [2] was “substrate 15 ↓ x2”, the “Endothelial cell GF 1 (platelet derived) transcript fold change” value [2] was “(platelet derived) ↓ x2” and the “Extra spindle poles, S. cerevisiae, homologue of transcript fold change” value [2] was “of ↓ x2.5”. For the same molecule, the “Fms-related tyrosine kinase 1 (VEGF/vascular permeability factor receptor) transcript fold change” value [2] was “factor receptor) ↓ x4.5”, the “G1 to S phase transition transcript fold change” value [2] was “transition ↓ x1.5” and the “G protein-coupled receptor 1 transcript fold change” value [2] was “receptor 1 ↓ x2.5”. The “G α inhibiting activity polypeptide 3 interacting protein transcript fold change” value [2] was “protein ↓ x5”, the “IFNγ-inducible protein 30 (IP30) transcript fold change” value [2] was 30 (IP30) ↓ x3.5 and the “IGF-1 transcript fold change” value [2] was “IGF-1 ↓ x1.5”. For the same molecule, the “IGF-binding protein 4 transcript fold change” value [2] was “↓ x2”, the “Neuroblastoma apoptosis-related RNA binding protein transcript fold change” value [2] was “binding protein ↓ x3” and the “Neuroblastoma transcript fold change” value [2] was “Neuroblastoma ↓ x2.5”. For the same molecule, the “PCNA transcript fold change” value [2] was “PCNA ↓ x2.5”, the “PI glycan, class F transcript fold change” value [2] was “PI glycan, class F ↓ x2” and the “PI-3-kinase. regulatory subunit, polypeptide 2 (p85 β) transcript fold change” value [2] was “(p85 β) ↓ x3.5”. For the same molecule, the “PP 2, regulatory subunit B (B56), γ isoform transcript fold change” value [2] was “isoform ↓ x1.5”, the “Pentaxin-related gene, rapidly induced by IL-1 transcript fold change” value [2] was “↓ x7.5” and the “THR interactor 10 transcript fold change” value [2] was “↓ x3”. For the same molecule, the “THR interactor 12 transcript fold change” value [2] was “↓ x1.5” and the “TNF type 1 receptor associated protein transcript fold change” value [2] was “associated protein ↓ x2”.
